Measured values reported in US9795570B2, “Modulation of macrophage phenotype by emodin” (University of South Carolina, priority 2016, dated 2017).

Assays:
[1] = test system: mouse peritoneal macrophages; assay: qPCR of macrophage activation genes; type: cell-based
Description: Three milliliters of 4% Thioglycolate solution was injected intraperitoneally into 8-12 week old C57BL/6 mice. Three days later, macrophages were collected by lavaging the peritoneal cavity with PBS. The cells were then resuspended in DMEM containing 10% FBS. After 2 h, non-adherent cells were washed away with PBS and the macrophages were cultured overnight in serum free DMEM. The macrophages were then treated with DMEM containing IL4 (10 ng/ml, BioAbChem Inc. Ladson, S.C.) or LPS (100 ng/ml, Sigma-Aldrich) and IFNγ (20 ng/ml, BioAbChem Inc) with or without emodin. Emodin was purchased from Nanjing Langze Medicine and Technology Co. Ltd (Nanjing, China) and dissolved in DMSO at a concentration of 10 mg/ml as a stock solution.
(§1) For qPCR, macrophages were lysed with Qiazol and RNA was extracted using Zymo research Direct-zol RNA isolation kit. cDNA was then made from 1 microgram of RNA using iScript cDNA Synthesis Kit (Bio-Rad Life Science). Run conditions were 95° C. for 10 s, 58° C. for 15 s, 70° C. for 15 s. Samples were run in duplicate on a Bio-rad CFX Real Time thermocycler.

[2] = test system: Peritoneal macrophages from C57Bl/6 mice; assay: Macrophages stimulated with EO771 tumor conditioned medium (qPCR, histone kit, ChIP); type: cell-based, mouse
Description: 4T1 cells were obtained from the American Type Culture Collection (ATCC), and EO771 cells were developed from an ER+ spontaneous mammary adenocarcinoma. The cells were maintained in culture according to standard practice. For tumor conditioned medium (TCM) collection, cells were grown until they were 80-90% confluent. Following, the medium was replaced with serum free (SF) DMEM and the cells were cultured for 48 h. The medium was then collected and passed through a 0.45 μm filter (Millipore Corp., Bedford, Mass.). The medium was concentrated 10 times using centrifuge filters with a 3,000 MW cutoff (Millipore). Before use the concentrated conditioned medium was diluted 1:2 with fresh SF DMEM.
Mice were injected with 3 mL of 4% thioglycollate solution. After 3 d, macrophages were collected by peritoneal lavage with PBS. The cells were resuspended in DMEM with 10% FBS and cultured for 2 h. The non-adherent cells were then washed away and the remaining cells were cultured overnight in SF DMEM. The cells were then treated with TCM with or without emodin.
as §1, with “cells” for “macrophages”, “Qiazol,” for “Qiazol”, “μg” for “microgram”, “Science, Hercules, Calif.).” for “Science).”
Macrophages were fixed in 1% formaldehyde. Excess formaldehyde was quenched with glycine, and the cells were collected in PBS by scraping. The cells were lysed (0.5% IGEPAL, 4 mM HEPES), and the nuclei were resuspended in nuclear lysis buffer (1% SDS, 10 mM EDTA, and 50 mM Tris, pH 8.1). The DNA was sheared by sonication using a Diagnode Bioruptor Pico (Diagenode, Denville, N.J.) for 25 cycles of 30 s on/30 s off. Then 8 μg chromatin was diluted 1:10 (0.01% SDS, 1.1% Triton X-100, 1.2 mM EDTA, 16.7 mM Tris-HCl, pH 8.1, 167 mM NaCl), and 2% of the input was removed from each sample and saved for analysis. Anti-H3K27m3 (Abcam) was added to each sample along with 20 μL of protein A+G magnetic beads (Millipore), and the samples were incubated overnight at 4° C. The beads were washed with low salt, high salt, LiCl, and TE wash buffers sequentially, and the DNA was eluted off the beads with Proteinase K at 62° C. for 2 h (elution buffer: 200 mM NaCl, 1% SDS and 50 mM Tris). The DNA was then analyzed by qPCR.
In order to detect genome wide levels of histone H3 modifications, histones were isolated from macrophages treated with TCM with or without emodin for 24 h using EpiQuik total histone extraction kits (Epigentek, Farmingdale, N.Y.) according to the manufacturer's instructions. Histones (100 ng) were then analyzed using an EpiQuik Histone H3 modification kits (EpiGentek) according to the manufacturer's instructions.

Cc1cc(O)c2c(c1)C(=O)c1cc(O)cc(O)c1C2=O [emodin]
expression of polarization markers iNOS, Arg1 and YM1 in naïve macrophages ([1]; emodin 25 or 50 μM, 24 h): no effects
expression of M1 genes TNFα, CXCL2 and CXCL10, and M2 gene Mrc1 ([1]; qPCR, LPS/IFNγ vs IL4 settings): inversely regulated
expression of M2 genes Arg1 and Chi3I3 ([1]; qPCR, under IL4 stimulation): inhibited
expression of receptors TLR4 and CSFr1 ([1]; qPCR, under LPS/IFNγ or IL4 stimulation, respectively): inhibited the expression
expression of IL1β, iNOS, IL6, MMP2 and 9 ([1]; qPCR, under LPS/IFNγ stimulation): inhibited the expression
expression of IRF5, SOCS1 and CCL2 ([1]; qPCR, under both IL4 and LPS stimulation): inhibited the expression
TCM-decreased H3K27m3 on the promoters of IRF4, Arg1, and C/EBPβ ([2]; ChIP assay): reversed the reduction
TCM-increased expression of ICAM1 ([2]; EO771 TCM, 24 h, qPCR): dose dependently blocked
TCM-induced expression of Arg1, C/EBPβ and IRF4 ([2]; EO771 TCM, 24 h, qPCR): dose-dependently inhibited
expression of CSFr1 ([2]; EO771 TCM, 24 h, qPCR): decreased the expression
expression of MMP2 and MMP9 ([2]; EO771 TCM, 24 h, qPCR): inhibited expression
TCM-increased expression of JMJD3 ([2]; EO771 TCM, emodin 25 μM or 50 μM, 24 h): significantly attenuated
global levels of H3K27 methylation ([2]; EpiQuik histone modification kit): no effects
